Where a name gives a salt, the structure may show the parent alone.
How the values were obtained:
Type in all cases: in vivo, human
[1] = tested on: patients with visceral moderate to intense pain after non-oncologic abdominal hysterectomy; assay: Example 3: phase III trial, oral ibuprofen arginate/tramadol HCl (400/37.5), pain after hysterectomy (VAS, rescue medication, adverse effects); conditions: tramadol HCl 50 mg; for Total rescued patients (number) / Total rescued patients (%): 8 doses every 6 hours, 48 hours; for Total rescued patients (number): N = 91/94/98, ibuprofen arginate 400 mg; for Total rescued patients (%) / Rescued patients at 24 h (%) / Rescued patients at 24 h (number) / Average time until rescue: ibuprofen arginate 400 mg; for Rescued patients at 24 h (%) / Rescued patients at 24 h (number): first 24 h of the study
Protocol: (§1) A phase III, multicentre, randomized, double-blind, placebo-controlled, study was performed to assess the compared efficacy and safety of the combination of ibuprofen arginate/tramadol HCl (400 mg ibuprofen/37.5 mg tramadol HCl) administered by the oral route, compared to oral tramadol (50 mg), oral ibuprofen arginate (400 mg ibuprofen) and placebo for treating adult patients (aged 18 or more) suffering from visceral moderate to intense pain after non-oncologic abdominal hysterectomy.
(§2) Pain intensity was assessed using the Visual Analogue Scale (VAS).
The patients selected for the study were adults suffering from moderate to severe pain (VAS 0-100≥40 mm) after total or partial abdominal hysterectomy for benign, non-oncologic disease, which required hospitalization during at least 48 hours.
The patients were divided in four groups, receiving the following medication: • Group 1: ibuprofen arginate/tramadol HCl 400 mg/37.5 mg (91 patients) • Group 2: ibuprofen arginate 400 mg (94 patients) • Group 3: tramadol HCl 50 mg (98 patients) • Group 4: placebo (93 patients)
(§3) The amount of ibuprofen arginate (400 mg) is expressed as the amount of ibuprofen in acidic form.
The combination of ibuprofen arginate/tramadol HCl administered to the patients of Group 1 was in the form of granulate for oral administration (as described in Example 4 below). Each dosage comprised 340 mg of L-arginine.
Patients of Group 2 received the commercial medicine Espidifen® 400 mg, each dose comprising 400 mg of ibuprofen, as 770 mg of ibuprofen arginate.
Patients of Group 3 received the commercial medicine Adolonta® 100 mg/ml oral solution, and a dose of 50 mg of tramadol HCl was administered.
After the surgery, the pain intensity of each patient was evaluated according to the VAS test until reaching the value ≥40 mm. At that moment, each patient was recruited and assigned to one of the four groups in a randomized way and the corresponding medication was administered. A new VAS test was performed after the administration of the first dose of the medication, which was taken as the basal value. Subsequently, 7 more doses of the assigned medication were administered, with an interval of 6 hours between doses, so a total of 8 doses were administered to each patient.
After the administration of the first dosage of each medication, the evolution of the patients was followed until 48 hours after the first dosage, by assessing the change in pain intensity.
After 30 minutes from the first dosage, patients were allowed to request a rescue medication, if needed. Rescue medication was 1 g paracetamol given by the oral route. If a second rescue medication was necessary, a capsule of 575 mg metamizole was administered.
Pain intensity was assessed for each patient at the following time points: 0 (basal), 1, 2, 4, 6, 8, 10, 12, 18, 24, 30, 36, 42 and 48 hours after the administration of the first dosage of the medication. For each of the four groups, the average VAS value was calculated at each time point.

[2] = tested on: patients with moderate to intense somatic pain after dental surgery; assay: Example 2: phase III trial, oral ibuprofen arginate/tramadol (400/37.5), pain after dental surgery (VAS, rescue medication, safety); conditions: 4 doses every 6 hours, 24 hours follow-up, tramadol HCl 50 mg; for Number of rescued patients: N = 95/97/98, ibuprofen arginate 400 mg; for % of rescued patients: ibuprofen arginate 400 mg
Protocol: as §1, with “placebo-controlled” for “placebo-controlled,”, “from” for “from visceral”, “intense somatic” for “intense”, “dental surgery.” for “non-oncologic abdominal hysterectomy.”
as §2
The patients selected for the study were adults suffering from moderate to severe pain (VAS 0-100≥45 mm) after surgical extraction of at least two third molars, if only two third molars were extracted, they should be ipsilateral and at least one of them impacted, involving bone removal.
The patients were divided in four groups, receiving the following medication: • Group 1: ibuprofen arginate/tramadol HCl 400 mg/37.5 mg (95 patients) • Group 2: ibuprofen arginate 400 mg (97 patients) • Group 3: tramadol HCl 50 mg (98 patients) • Group 4: placebo (93 patients)
as §3
The combination of ibuprofen arginate/tramadol HCl administered to the patients of Group 1 was in the form of a granulate for oral administration (as described in Example 4). Each dosage comprised 340 mg of L-arginine.
The ibuprofen arginate 400 mg administered to the patients of Group 2 corresponded to the commercial medicine Espidifen® 400 mg, each dose comprising 400 mg of ibuprofen, given as 770 mg of ibuprofen arginate.
The 50 mg dose of tramadol HCl 50 mg of Group 3 was administered using the commercial medicine Adolonta® 100 mg/ml oral solution.
After the dental surgery, the pain intensity of each patient was evaluated according to the VAS test until reaching the value ≥45 mm. At that moment, the patient was assigned to one of the four groups in a randomized way and the corresponding medication was administered. A new VAS test was performed after the administration of the first dose of the medication, which was taken as the basal value. 4 doses of each medication were administered, with an interval of 6 hours between doses.
After the administration of each medication, the evolution of patients was followed until 24 hours after the first dosage, by assessing the change in pain intensity.
Patients were allowed to ask for rescue medication during that period, starting 30 minutes after the administration of the first dosage. […]
Pain intensity was assessed for each patient at the following time points: 0 (basal), 1, 2, 3, 4, 5, 6, 8, 12 and 24 hours after the administration of the medication. For each of the four groups, the average VAS value was calculated.

[3] = tested on: patients with moderate to intense pain after dental surgery; assay: Example 1: phase III pilot trial, intravenous ibuprofen arginate combined with tramadol, pain after dental surgery (VAS, rescue medication, adverse effects); conditions: for VAS (average value): single iv infusion
Protocol: A phase III, multicentre, randomized, double-blind, placebo-controlled, pilot study was performed to assess the compared efficacy and safety of intravenous ibuprofen arginate (400 mg) combined with two different doses of tramadol hydrochloride (37.5 and 75 mg) and of intravenous tramadol 100 mg in patients suffering from moderate to intense pain after dental surgery.
as §2
The patients were divided in four groups, receiving the following medication: • Group 1: ibuprofen arginate/tramadol HCl 400 mg/37.5 mg (16 patients) • Group 2: ibuprofen arginate/tramadol HCl 400 mg/75 mg (18 patients) • Group 3: tramadol HCl 100 mg (18 patients) • Group 4: placebo (saline solution) (17 patients)
The amount of ibuprofen arginate (400 mg) is expressed as the amount of ibuprofen in acidic form. The amount of L-arginine in each composition in groups 1 and 2 was 356 mg, which corresponds to a molar ratio ibuprofen:arginine 1:1.054.
The compositions of groups 1 to 3 were aqueous solutions of the drugs prepared with water for injection. Other excipients included in the compositions were sodium chloride, used as tonicity agent, to reach an osmolality of 310-360 mOsm/Kg, and hydrochloric acid and sodium hydroxide to adjust the pH of the solution to a value in the range 6.8-7.8. The volume of the composition in all groups was 100 ml, which was infused intravenously during 30 minutes, in a single administration. The preparation of the composition used for Group 1 is analogous as disclosed in Example 5. The preparation of the composition used for Group 2 was equivalent, but using 75 mg of tramadol HCl instead of 37.5 mg.
Thus, after the dental surgery, the pain intensity of each patient was evaluated according to the VAS test until reaching the value ≥55 mm. At that moment, the patient was assigned to one of the four groups in a randomized way and the corresponding medication was administered not later than 15 minutes after randomization and not later than 25 minutes after VAS test. A new VAS test was performed at the beginning of the infusion, which was taken as the basal value.
After the administration of each medication, the evolution of patients was followed during 4 hours, by assessing the change in pain intensity.
Patients were allowed to ask for rescue medication during that period, starting 30 minutes after the administration of each treatment. Rescue medication was 1 g paracetamol given by the oral route. If a second rescue medication was necessary, a capsule of 575 mg metamizole was administered. If rescue medication was administered before 4 hours after the administration of the study medication, the patient left the study (but remained still included for assessing safety parameters and was under monitoring for further 4 hours).
Pain intensity was assessed for each patient at the following time points: 0 (basal), 15, 30, 45, 60, 75, 90, 105, 120, 150, 180, 210, and 240 minutes after the administration of the medication. For each of the four groups, the average VAS value was calculated.

SMILES: CC(C)Cc1ccc(C(C)C(=O)O)cc1 (racemic) [ibuprofen arginate, (RS)-2-(4-(2-methylpropyl)phenyl)propanoic acid]
- Total rescued patients (number) [1]: 23
- Total rescued patients (%) [1]: 24.5%
- Rescued patients at 24 h (%) [1]: 22.3%
- Rescued patients at 24 h (number) [1]: 21
- Average time until rescue [1]: 8.43 h
- Number of rescued patients [2]: 6
- % of rescued patients [2]: 6.2%

SMILES: COc1cccc([C@]2(O)CCCC[C@H]2CN(C)C)c1 (racemic) [tramadol HCl, (±)-cis-2-[(dimethylamino)methyl]-1-(3-methoxyphenyl) cyclohexanol]
- Number of rescued patients ([3]; iv, 4 hours follow-up, N = 16/18/18, tramadol HCl alone 100 mg): 9
- % of rescued patients ([3]; iv, 4 hours follow-up, tramadol HCl alone 100 mg): 50.0%
- Number of patients reporting AE ([3]; iv, N = 16/18/18, tramadol HCl alone 100 mg): 5
- % of patients reporting AE ([3]; iv, tramadol HCl alone 100 mg): 27.8%
- Average time until rescue ([3]; iv, tramadol HCl alone 100 mg): 70 min
- Number of AE ([3]; iv, tramadol HCl alone 100 mg): 9
- VAS (average value) ([3]; 15 min after administration, tramadol HCl alone 100 mg): 48.55 mm
- VAS (average value) ([3]; 30 min, tramadol HCl alone 100 mg): 45.28 mm
- VAS (average value) ([3]; 45 min, tramadol HCl alone 100 mg): 47.11 mm
- VAS (average value) ([3]; 60 min, tramadol HCl alone 100 mg): 51.67 mm
- VAS (average value) ([3]; 75 min, tramadol HCl alone 100 mg): 54.72 mm
- VAS (average value) ([3]; 90 min, tramadol HCl alone 100 mg): 54.44 mm
- VAS (average value) ([3]; 105 min, tramadol HCl alone 100 mg): 53.67 mm
- VAS (average value) ([3]; 120 min, tramadol HCl alone 100 mg): 51.55 mm
- VAS (average value) ([3]; 150 min, tramadol HCl alone 100 mg): 49.39 mm
- VAS (average value) ([3]; 180 min, tramadol HCl alone 100 mg): 47.94 mm
- VAS (average value) ([3]; 210 min, tramadol HCl alone 100 mg): 46.72 mm
- VAS (average value) ([3]; 240 min, tramadol HCl alone 100 mg): 44.50 mm
- VAS (average value) ([3]; time 0 min (basal), tramadol HCl alone 100 mg): 72.83 mm
- Total rescued patients (number) [1]: 31
- Total rescued patients (%) [1]: 31.6%
- Rescued patients at 24 h (%) [1]: 28.6%
- Rescued patients at 24 h (number) [1]: 28
- Average time until rescue [1]: 8.97 h
- number of adverse effects reported relative to Group 1 (ibuprofen/tramadol) [1]: twice
- Number of rescued patients [2]: 38
- % of rescued patients [2]: 38.8%

— patent publication US12514833B2, “Combination of ibuprofen and tramadol for relieving pain” (FARMALÍDER, S.A., priority 2019, dated 2026)
